Measured values taken from PubChem BioAssay AID1963849 (Molecular Pharmacology Branch, DTP, NCI, 2024).

Tested on: 299254-011-R-J1-PDC complex spheroid viability
Assay: Anticancer human tumor 299254-011-R-J1-PDC patient-derived melanoma cell line growth inhibition [POLQ]
Conditions: for IC50: curve of first compound; for viability, T/C: stronger effect = lower value
Method in brief: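 PDC + HUVEC + MSC complex spheroids; POLQ inhibitors ± partner drugs; top conc. at/near clinical Cmax, else 10 microM (SN-38 1 microM), half-log dilutions; 37 degrees C, 5% CO2.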

[1] = second compound 0.0316 µM, first compound 0.0316 µM
[2] = second compound 0.0316 µM, first compound 0.1 µM
[3] = second compound 0.0316 µM, first compound 0.316 µM
[4] = second compound 0.0316 µM, first compound 1 µM
[5] = second compound 0.0316 µM, first compound 3.16 µM
[6] = second compound 0.0316 µM, first compound 10 µM
[7] = second compound 0.1 µM, first compound 0.0316 µM
[8] = second compound 0.1 µM, first compound 0.1 µM
[9] = second compound 0.1 µM, first compound 0.316 µM
[10] = second compound 0.1 µM, first compound 1 µM
[11] = second compound 0.1 µM, first compound 3.16 µM
[12] = second compound 0.1 µM, first compound 10 µM
[13] = second compound 0.316 µM, first compound 0.0316 µM
[14] = second compound 0.316 µM, first compound 0.1 µM
[15] = second compound 0.316 µM, first compound 0.316 µM
[16] = second compound 0.316 µM, first compound 1 µM
[17] = second compound 0.316 µM, first compound 3.16 µM
[18] = second compound 0.316 µM, first compound 10 µM
[19] = second compound 1 µM, first compound 0.0316 µM
[20] = second compound 1 µM, first compound 0.1 µM
[21] = second compound 1 µM, first compound 0.316 µM
[22] = second compound 1 µM, first compound 1 µM
[23] = second compound 1 µM, first compound 3.16 µM
[24] = second compound 1 µM, first compound 10 µM
[25] = second compound 3.16 µM, first compound 0.0316 µM
[26] = second compound 3.16 µM, first compound 0.1 µM
[27] = second compound 3.16 µM, first compound 0.316 µM
[28] = second compound 3.16 µM, first compound 1 µM
[29] = second compound 3.16 µM, first compound 3.16 µM
[30] = second compound 3.16 µM, first compound 10 µM
[31] = second compound 10 µM, first compound 0.0316 µM
[32] = second compound 10 µM, first compound 0.1 µM
[33] = second compound 10 µM, first compound 0.316 µM
[34] = second compound 10 µM, first compound 1 µM
[35] = second compound 10 µM, first compound 3.16 µM
[36] = second compound 10 µM, first compound 10 µM
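Also: spheroids exposed to drugs for one week before measurement.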
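For viability, T/C in this document: percent viability relative to DMSO vehicle control taken as 100%.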

O=c1[nH]cc(F)c(=O)[nH]1 + Cc1cccc(N(C)C(=O)C2C(O)CCN2c2nc(C)cc(C(F)(F)F)c2C#N)c1
IC50 (second compound 0.0316 µM): > 10 µM | IC50 (second compound 0.1 µM): > 10 µM | IC50 (second compound 0.316 µM): > 10 µM | IC50 (second compound 1 µM): > 10 µM | IC50 (second compound 3.16 µM): > 10 µM | IC50 (second compound 10 µM): > 10 µM | viability, T/C [1]: 115% | viability, T/C [2]: 88% | viability, T/C [3]: 105% | viability, T/C [4]: 97.3% | viability, T/C [5]: 76.1% | viability, T/C [6]: 73% | viability, T/C [7]: 105% | viability, T/C [8]: 92.4% | viability, T/C [9]: 96% | viability, T/C [10]: 94.8% | viability, T/C [11]: 88.1% | viability, T/C [12]: 81.2% | viability, T/C [13]: 111% | viability, T/C [14]: 118% | viability, T/C [15]: 106% | viability, T/C [16]: 99.3% | viability, T/C [17]: 98.9% | viability, T/C [18]: 67.6% | viability, T/C [19]: 112% | viability, T/C [20]: 99.7% | viability, T/C [21]: 98.2% | viability, T/C [22]: 92.3% | viability, T/C [23]: 88% | viability, T/C [24]: 68.1% | viability, T/C [25]: 114% | viability, T/C [26]: 103% | viability, T/C [27]: 89.1% | viability, T/C [28]: 114% | viability, T/C [29]: 90.3% | viability, T/C [30]: 65.2% | viability, T/C [31]: 103% | viability, T/C [32]: 98% | viability, T/C [33]: 93.4% | viability, T/C [34]: 87% | viability, T/C [35]: 80.9% | viability, T/C [36]: 69.3%

C#Cc1c(F)ccc2cc(O)cc(-c3ncc4c(N5CC6CCC(C5)N6)nc(OCC56CCCN5CC(F)C6)nc4c3F)c12 (stereo unspecified) + Nc1ccc(C#CCN(C(=O)Cc2ncc(C(F)(F)F)cc2C(F)(F)F)c2ccc(F)cc2)nn1
IC50 (second compound 0.0316 µM): > 10 µM | IC50 (second compound 0.1 µM): > 10 µM | IC50 (second compound 0.316 µM): > 10 µM | IC50 (second compound 1 µM): > 10 µM | IC50 (second compound 3.16 µM): > 10 µM | IC50 (second compound 10 µM): > 10 µM | viability, T/C [1]: 106% | viability, T/C [2]: 108% | viability, T/C [3]: 106% | viability, T/C [4]: 112% | viability, T/C [5]: 116% | viability, T/C [6]: 82.1% | viability, T/C [7]: 92.3% | viability, T/C [8]: 109% | viability, T/C [9]: 110% | viability, T/C [10]: 104% | viability, T/C [11]: 103% | viability, T/C [12]: 90.2% | viability, T/C [13]: 107% | viability, T/C [14]: 103% | viability, T/C [15]: 133% | viability, T/C [16]: 104% | viability, T/C [17]: 98% | viability, T/C [18]: 92.4% | viability, T/C [19]: 114% | viability, T/C [20]: 102% | viability, T/C [21]: 104% | viability, T/C [22]: 136% | viability, T/C [23]: 103% | viability, T/C [24]: 103% | viability, T/C [25]: 117% | viability, T/C [26]: 118% | viability, T/C [27]: 106% | viability, T/C [28]: 128% | viability, T/C [29]: 99.1% | viability, T/C [30]: 86.6% | viability, T/C [31]: 103% | viability, T/C [32]: 89.5% | viability, T/C [33]: 92.6% | viability, T/C [34]: 128% | viability, T/C [35]: 96.9% | viability, T/C [36]: 68.6%

CC1COCCN1c1cc(C2(O)CC3CCC(C2)O3)c2cnn(-c3ccn[nH]3)c2n1 (stereo unspecified) + COC1C(OC(N)=O)C(O)C(Oc2ccc3c(O)c(NC(=O)c4ccc(O)c(CC=C(C)C)c4)c(=O)oc3c2C)OC1(C)C
IC50 (second compound 0.0316 µM): 0.136 µM | IC50 (second compound 0.1 µM): 0.182 µM | IC50 (second compound 0.316 µM): 0.206 µM | IC50 (second compound 1 µM): 0.163 µM | IC50 (second compound 3.16 µM): 0.159 µM | IC50 (second compound 10 µM): 0.176 µM | viability, T/C [1]: 102% | viability, T/C [2]: 53.5% | viability, T/C [3]: 35.8% | viability, T/C [4]: 20.7% | viability, T/C [5]: 14.8% | viability, T/C [6]: 11.1% | viability, T/C [7]: 86.4% | viability, T/C [8]: 64.8% | viability, T/C [9]: 36.6% | viability, T/C [10]: 18.9% | viability, T/C [11]: 16.8% | viability, T/C [12]: 11.5% | viability, T/C [13]: 88.9% | viability, T/C [14]: 75.6% | viability, T/C [15]: 34% | viability, T/C [16]: 20.4% | viability, T/C [17]: 14% | viability, T/C [18]: 11.6% | viability, T/C [19]: 109% | viability, T/C [20]: 56.5% | viability, T/C [21]: 37.4% | viability, T/C [22]: 27.1% | viability, T/C [23]: 15.6% | viability, T/C [24]: 10.2% | viability, T/C [25]: 91.5% | viability, T/C [26]: 61.1% | viability, T/C [27]: 33.1% | viability, T/C [28]: 20.4% | viability, T/C [29]: 13% | viability, T/C [30]: 11.1% | viability, T/C [31]: 87.6% | viability, T/C [32]: 60.5% | viability, T/C [33]: 40.7% | viability, T/C [34]: 17.9% | viability, T/C [35]: 16.6% | viability, T/C [36]: 10.2%
